In data set [1] the test system is C. albicans cytoplasmic membrane. The data set is described as follows: Cell membrane permeabilization (Sytox Green uptake). The data set is classed as cell-based, Candida albicans (ATCC 90028). To be noted: mean ± SEM; for Membrane Permeabilization Max. Perm.: Sytox Green fluorescence, PBS, 50 min; for Membrane Permeabilization Perm.: maximum at final incubation time (50 min), referred to positive control 10 % Triton X-100, Sytox Green. The procedure:
Membrane permeabilization was evaluated by using the Sytox® Green uptake assay. Sytox® Green is a cationic cyanine dye which is unable to cross the membrane. When cells’ plasma membrane integrity is compromised, the dye enters into the cell, binding to DNA and triggering a large increase of the fluorescence signal. For Sytox® Green assays, C. albicans cells were grown to mid-exponential growth phase at 30 °C and then centrifuged, washed, and resuspended in PBS. Cell suspensions in PBS (~2 × 10^6 cells/mL) were incubated with 1 μM Sytox® Green for 15 min in the dark prior to the influx assay. At 2 to 4 min after initiating data collection, proteins at 1 and 5 μM final concentration were added to the cell suspension, and the increase in Sytox® Green fluorescence was measured (excitation wavelength at 485 nm and emission at 520 nm) for 50 min in a Cary Eclipse spectrofluorimeter. Fungal cell lysis with 10% Triton X-100 was taken as the maximum fluorescence reference value.

Data set [2] has as its system C. albicans. The data set is described as follows: Minimum fungicidal concentration by CFU counting. It counts as cell-based, Candida albicans (ATCC 90028). To be noted: for MFC100, PBS / MFC100, Sabouraud Broth: C. albicans ~2 × 10^5 cells/mL, CFU counting, peptides 20 to 0.1 µM, mean ± SEM, two independent experiments in triplicate; for MFC100, PBS: 4 h at 30 °C in PBS; for MFC100, Sabouraud Broth: 4 h at 30 °C in Sabouraud nutrient broth. As for the experimental part: C. albicans was cultured overnight in Sabouraud Dextrose broth at 30 °C, sub-cultured the next day in fresh media and grown to an optical density of 0.4 at 592 nm (mid log-phase). Cells were washed twice and diluted to ~2 × 10^5 cells/mL. Peptides serially diluted were added to the cells from 20 to 0.1 µM final concentration. C. albicans was incubated at 30 °C during 4h in Sabouraud nutrient broth or PBS. Following, the samples were plated onto Sabouraud Petri dishes and incubated at 30 °C overnight. Antifungal activity was expressed as the MFC, defined as the lowest peptide concentration required for more than 99% of microorganism killing. MFC of each peptide was determined from two independent experiments performed in triplicate for each concentration.

Data set [3] deals with C. albicans planktonic cells. It counts as cell-based, Candida albicans (ATCC 90028). To be noted: 4 h. The procedure:
Cell viability of C. albicans was assayed using the BacTiter-Glo™ Microbial Cell Viability kit (Promega), which measures the number of viable cells, by ATP quantification. ATP, as an indicator of metabolically active cells, is indirectly measured by a coupled luminescence detection assay. The luminescent signal is proportional to the amount of ATP required for the conversion of luciferin into oxyluciferin in the presence of luciferase. An overnight culture of C. albicans was used to inoculate fresh Sabouraud liquid culture, and logarithmic phase culture was grown to an OD592 of 0.2. RNase derived N-terminal peptides were added to 0.1 mL of cell culture at a final concentration from 0.025 to 20 μM. The C. albicans viability was followed after 4 h of incubation at 30 °C. 50 µL of incubation culture were mixed with 50 µL of BacTiter-Glo^TM reagent in a microtiter plate following the manufacturer instructions and incubated at room temperature for 10 min. Luminiscence was read on a Victor3 plate reader (PerkinElmer, Waltham, MA, USA) with a 1-s integration time. IC50 values were calculated by fitting the data to a dose-response curve.

Data set [4] relates to C. albicans. The experiment in a line: Cell survival assay (Live/Dead kit). It counts as cell-based, Candida albicans (ATCC 90028). To be noted: survival percentage at final incubation time (120 min), mean ± SEM. The procedure: C. albicans viability assay was performed using the Live⁄Dead® microbial viability kit as previously described. Candida strain was grown at 30 °C to ~5 × 10^6 cells/mL, centrifuged at 5000× g for 5 min and resuspended in a 0.85% NaCl solution, in accordance with the manufacturer instructions. C. albicans cell culture was stained using a SYTO®9/propidium iodide 1:1 mixture. SYTO9/propidium iodide staining allowed us to monitor both the candidal viability in planktonic cell cultures and within the biofilm, as the SYTO9 dye is able to permeate the cell membrane and stain the nucleic acid of viable cells; whereas, when the cell membrane is damaged, propidium iodide can diffuse into the cell and displace SYTO9. The method allows the labelling of intact viable cells and membrane compromised cells, which are labelled in green and red respectively, referred to as live and dead cells. The viability kinetics were monitored using a Cary Eclipse Spectrofluorimeter (Varian Inc., Palo Alto, CA, USA). Cell viability profiles were registered after adding from 1 to 5 µM of final peptide concentration. To calculate the cell viability, the fluorescence in the range of 510–540 nm and 620–650 nm were integrated to obtain the SYTO®9 (live cell) and the propidium iodide (dead cell) signals respectively. Then, the percentage of live bacteria was represented as a function of time.

For the next data set, the system named is C. albicans cells. The experiment in a line: Minimal agglutination activity (MAC). It counts as cell-based, Candida albicans (ATCC 90028). To be noted: for MAC (minimal agglutination concentration): C. albicans in PBS, 1 h at 30 °C, peptides 0.01 to 20 μM, visual inspection, mean ± SEM, three replicates of two independent experiments. As for the experimental part:
C. albicans cells were grown at 30 °C to an OD592 of 1.0, diluted 10 times, centrifuged at 5000× g for 2 min, and resuspended in 1× PBS. An aliquot of 100 μL of the cellular suspension was treated with increasing peptide concentrations (from 0.01 to 20 μM) and incubated at 30 °C for 1 h. The aggregation behavior was observed by visual inspection, and the agglutinating activity is expressed as the minimum agglutinating concentration of the sample tested, as previously described. Images were taken using a 50× stereoscope microscope.

Another data set in a line: in vitro. The data set is classed as cell-based. To be noted: human. The procedure: The peptide cytoxicity was evaluated using the human monocytic THP1 cell line. The assay was performed in 96-well cell culture flat-bottom plates (Costar; Appleton Woods) in triplicate. THP-1 cultures were induced to macrophages by adding 2 ng/mL of colony-stimulating factor (R&D Systems, Germany). Peptides were serially diluted from 50 to 0.1 µM and added to 5 × 10^5 cells/mL. After 48 h of incubation, the cells were washed twice with 1× PBS, and fresh RPMI-1640 complete medium was added. Plates were then treated with 30 μL of a freshly prepared 0.01% resazurin solution and incubated overnight at 37 °C. The following day the change in color was observed and the fluorescence intensity was measured (λex560 nm, λem590 nm). The 50% growth inhibitory concentration (GIC50) was determined based on the resazurin fluorescence signal.

In data set [5] the test system is C. albicans cytoplasmic membrane. The experiment in a line: Cell membrane depolarization assay (DiSC3). It counts as cell-based, Candida albicans (ATCC 90028). To be noted: mean ± SEM; for Membrane Depolarization ED50: DiSC3 probe, peptide 0.1 to 5 µM, 50 min, 20 °C, Hepes-KOH pH 7.2; for Membrane Depolarization Depolmax: maximum fluorescence value at final incubation time with 2 µM peptide, DiSC3. As for the experimental part: Membrane depolarization was assayed by monitoring the DiSC3 fluorescence intensity change in response to changes in transmembrane potential as described previously. C. albicans cells were grown at 30 °C to the mid-exponential (OD592~0.4) and resuspended in 5 mM Hepes-KOH, 20 mM glucose and 100 mM KCl at pH 7.2. DiSC3 was added to a final concentration of 0.4 µM. Changes in the fluorescence for alteration of the cell plasma membrane potential were continuously monitored at 20 °C at an excitation wavelength of 620 nm and an emission wavelength of 670 nm. When the dye uptake was maximal, as indicated by a stable reduction in the fluorescence as a result of quenching of the accumulated dye in the membrane interior, protein in 5 mM Hepes-KOH buffer at pH 7.2 was added at a final peptide concentration from 1 to 5 μM and incubated for 50 min, to calculate the ED50 concentration. Maximum depolarization was calculated when the fluorescence signal was fully stabilized, and the depolarization percentage was calculated taking Triton X-100 at 10% as a maximum reference value. The time required to reach a stabilized maximum fluorescence reading was recorded for each condition, and the time required to achieve half of total membrane depolarization was estimated from the nonlinear regression curve. All conditions were assayed in duplicate.

Data set [6] concerns C. albicans. To be noted: as previously reported; cited from earlier work.

In brackets after ≈: the same amount, converted by molar mass. Where no end group is shown, it is not given here.

Consider “QDNSRYTHFLTQHYDAKPQGRDDRYSESIMRRRGLTSPSKDINTFIH-NH2 [RN5]”, for which, in data set [1], the “Membrane Permeabilization Max. Perm.” value came out at 66.5 ± 0.6 AU and the “Membrane Permeabilization Perm.” value is given as 21.8 ± 0.4%. Moreover, in the data set with C. albicans [2], the “MFC100, PBS” value was over 20 µM and the “MFC100, Sabouraud Broth” value is over 20 µM. Besides, the MFC entry with C. albicans [2] (medium not specified) was “inactive”. Moreover, the IC50 in data set [3] was over 20000 nM. Besides, the “Cell Survival” value in the data set with C. albicans [4] came out at 39 ± 0.5%. Besides, in the data set with C. albicans cells, the “MAC (minimal agglutination concentration)” value (“MAC” below) amounted to 1.80 ± 0.40 µM. The molecule also returned an IC50 at 48 h in the data set “in vitro” of over 50000 nM. Further, in data set [5], the “Membrane Depolarization ED50” value came out at 1510 ± 100 nM and the “Membrane Depolarization Depolmax” value was found to be 39.1 ± 5.1 AU.
As for colistin, the “MFC taken as internal reference” value with C. albicans [6] is 0.25 µM.
In the case of “KPKGMTSSQWFKIQHMQPSPQASNSAMKNINKHTKRSKDLNTFLH-NH2 [RN7]”, in data set [3], the IC50 turned out to be 450 ± 100 nM. This molecule yielded an IC50 at 48 h in “in vitro” of over 50000 nM.
As for “KESRAKKFQRQHMDSDSSPSSSSTYSNQMMRRRNMTQGRSKPVNTFVH-NH2 [RN1]”, in data set [1], the “Membrane Permeabilization Max. Perm.” value was 26.1 ± 0.4 AU and the “Membrane Permeabilization Perm.” value was 8.3 ± 0.4%. For the same molecule, in the data set on C. albicans [2], the “MFC100, PBS” value came out at 3.75 ± 0.30 µM and the “MFC100, Sabouraud Broth” value worked out at 3.75 ± 0.50 µM. The same molecule registered an IC50 in data set [3] of 2100 ± 200 nM. Also, the “Cell Survival” value with C. albicans [4] came out at 67 ± 1%. Moreover, in the data set on C. albicans cells, the “MAC” value is on record as 1.80 ± 0.40 µM. In the data set “in vitro”, the concentration for half-maximal inhibition (IC50) at 48 h was over 50000 nM. Moreover, in data set [5], the “Membrane Depolarization ED50” value stood at 4630 ± 700 nM and the “Membrane Depolarization Depolmax” value turned out to be 65.2 ± 4.6 AU.
For “WPKRLTKAHWFEIQHIQPSPLQSNRAMSGINNYTQHSKHQNTFLH-NH2 [RN6]”, in data set [3], the concentration for half-maximal inhibition (IC50) came to 1800 ± 200 nM. Also, the IC50 at 48 h in “in vitro” was over 50000 nM.
On to “KPPQFTWAQWFETQHINMTSQQSTNAMQVINNYQRRSKNQNTFLL-NH2 [RN2]”, for which, in data set [3], the half-maximal inhibitory concentration (IC50) is over 20000 nM. The same molecule registered an IC50 at 48 h in “in vitro” of over 50000 nM.
As for `C[C@@H]1[C@H](O)[C@@H](C)/C=C/C=C/C=C/C=C/C=C/C=C/C=C/[C@H](O[C@@H]2O[C@H](C)[C@@H](O)[C@H](N)[C@@H]2O)C[C@@H]2O[C@](O)(C[C@@H](O)C[C@@H](O)[C@H](O)CC[C@@H](O)C[C@@H](O)CC(=O)O[C@H]1C)C[C@H](O)[C@H]2C(=O)O` [amphotericin B], the “MFC taken as internal reference” value with C. albicans [6] is 0.5 µM (≈ 0.462 µg/mL).
For the molecule “RPPQFTRAQWFAIQHISLNPPRSTIAMRAINNYRWRSKNQNTFLR-NH2 [RN3]”, half-maximal inhibition in data set [3] (IC50) was put at 220 ± 50 nM. Further, the IC50 at 48 h in “in vitro” was over 50000 nM.
The matching figures for “RPRGMTSSQWFRIQHMQPSPQASNSAMRNINRHTRRSRDLNTFLH-NH2 [RN7R]”: 1620 ± 320 nM and over 50000 nM.
The molecule “KPKDMTSSQWFKTQHVQPSPQASNSAMSIINKYTERSKDLNTFLH-NH2 [RN8]” had an IC50 in data set [3] of over 10000 nM. Also, in “in vitro”, the IC50 at 48 h was over 50000 nM.
Consider “QDGMYQRFLRQHVHPEETGGSDRYSNLMMQRRKMTLYHSKRFNTFIH-NH2 [RN4]”, for which, in data set [1], the “Membrane Permeabilization Max. Perm.” value is on record as 117 ± 2 AU and the “Membrane Permeabilization Perm.” value is on record as 38.7 ± 0.1%. For the same molecule, in the data set on C. albicans [2], the “MFC100, PBS” value was found to be 3.75 ± 0.20 µM and the “MFC100, Sabouraud Broth” value was 4.00 ± 0.50 µM. This molecule also showed an IC50 in data set [3] of 1800 ± 300 nM. Further, the “Cell Survival” value in the data set with C. albicans [4] is 65 ± 10%. The “MAC” value in the data set on C. albicans cells was determined as 0.40 ± 0.10 µM. Moreover, the IC50 at 48 h in “in vitro” was over 50000 nM. Besides, in data set [5], the “Membrane Depolarization ED50” value was determined as 3580 ± 1600 nM and the “Membrane Depolarization Depolmax” value came to 76.2 ± 4.8 AU.
“KPPQFTKAQWFAIQHISLNPPKSTIAMKAINNYKWKSKNQNTFLK-NH2 [RN3K]”: the IC50 in data set [3] amounted to 2080 ± 270 nM. In the data set “in vitro”, this molecule yielded an IC50 at 48 h of over 50000 nM.

B1: hRNase7: human ribonuclease 7 of the RNaseA superfamily, parental protein of RN7 (protein, UniProt Q9H1E1 29-156, looked up)
Ribonuclease 7: KPKGMTSSQWFKIQHMQPSPQACNSAMKNINKHTKRCKDLNTFLHEPFSSVAATCQTPKIACKNGDKNCHQSHGAVSLTMCKLTSGKHPNCRYKEKRQNKSYVVACKPPQKKDSQQFHLVPVHLDRVL
For B1, the “agglutination of C. albicans by the parental hRNase” value in the data set with C. albicans cells (protein tested up to 20 μM) was “not”.
